Target: T1, Chk1 (Homo sapiens, UniProt O14757)
T1 construct: purchased Upstate Biotechnology
T1 sequence (O14757 1-476): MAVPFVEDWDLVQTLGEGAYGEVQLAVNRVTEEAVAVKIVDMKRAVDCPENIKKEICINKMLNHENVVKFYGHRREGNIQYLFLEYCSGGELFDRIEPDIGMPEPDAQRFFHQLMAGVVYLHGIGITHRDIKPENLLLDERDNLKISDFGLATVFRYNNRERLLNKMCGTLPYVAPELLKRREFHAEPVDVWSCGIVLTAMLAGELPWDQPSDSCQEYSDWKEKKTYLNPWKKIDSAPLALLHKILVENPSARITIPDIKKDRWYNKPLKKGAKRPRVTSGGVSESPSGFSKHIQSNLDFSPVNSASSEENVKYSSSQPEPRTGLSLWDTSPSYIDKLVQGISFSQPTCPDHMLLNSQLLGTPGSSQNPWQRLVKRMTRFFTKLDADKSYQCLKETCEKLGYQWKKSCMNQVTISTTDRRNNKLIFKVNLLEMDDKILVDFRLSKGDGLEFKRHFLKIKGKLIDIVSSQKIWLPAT
Experiment: Chk1 kinase assay: incorporation of γ-33P ATP into immobilized myelin basic protein
Assay type: biochemical
Conditions: read-out: Chk1 IC50
Procedure, shortened: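 MBP coated on plates (20 μg/ml) was phosphorylated by Chk1 (10 nM) or Chk2 (20 nM) with γ-33P ATP plus 10 μM (Chk1) or 30 μM (Chk2) unlabeled ATP, 1 h at room temperature, 1% DMSO. Bound radioactivity was counted by scintillation after washing; IC50 or Ki derived from fitted rate data.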

`CNC(=O)c1nc(-c2cccc(C(=O)NCc3c(Cl)cc(Cl)cc3Cl)c2)cnc1N` [Example 292, 3-amino-N-methyl-6-[3-({[(2,4,6-trichlorophenyl)methyl]amino}carbonyl)phenyl]pyrazine-2-carboxamide] and `CNC(=O)c1nc(-c2cccc(C(=O)NCc3c(F)ccc(C)c3Cl)c2)cnc1N` [Example 296, 3-amino-6-[3-({[(2-chloro-6-fluoro-3-methylphenyl)methyl]amino}carbonyl)phenyl]-N-methylpyrazine-2-carboxamide] fall in the same range of IC50: 50 to 1000 nM for the first, 50 to 1000 nM for the second.

`CNC(=O)c1nc(-c2cccc(C(=O)NCc3cccc(Cl)c3C)c2)cnc1N` [Example 293, 3-amino-6-[3-({[(3-chloro-2-methylphenyl)methyl]amino}carbonyl)phenyl]-N-methylpyrazine-2-carboxamide] and `CNC(=O)c1nc(-c2cccc(C(=O)NCc3cccc(Cl)c3F)c2)cnc1N` [Example 300, 3-amino-6-[3-({[(3-chloro-2-fluorophenyl)methyl]amino}carbonyl)phenyl]-N-methylpyrazine-2-carboxamide] fall in the same range of IC50: 50 to 1000 nM for the first, 50 to 1000 nM for the second.

`CNC(=O)c1nc(-c2cccc(C(=O)NCc3cc(OC)ccc3OC)c2)cnc1N` [Example 294, 3-amino-6-{3-[({[2,5-bis(methyloxy)phenyl]methyl}amino)carbonyl]phenyl}-N-methylpyrazine-2-carboxamide] and `CNC(=O)c1nc(-c2cccc(C(=O)NCc3ccccc3OC)c2)cnc1N` [Example 325, 3-amino-N-methyl-6-{3-[({[2-(methyloxy)phenyl]methyl}amino)carbonyl]phenyl}pyrazine-2-carboxamide] fall in the same range of IC50: 50 to 1000 nM for the first, 50 to 1000 nM for the second.

`CNC(=O)c1nc(-c2cccc(C(=O)NCc3ccc(C)c(F)c3)c2)cnc1N` [Example 295, 3-amino-6-[3-({[(3-fluoro-4-methylphenyl)methyl]amino}carbonyl)phenyl]-N-methylpyrazine-2-carboxamide] and `CNC(=O)c1nc(-c2cccc(C(=O)NCc3ccc(F)c(C)c3)c2)cnc1N` [Example 299, 3-amino-6-[3-({[(4-fluoro-3-methylphenyl)methyl]amino}carbonyl)phenyl]-N-methylpyrazine-2-carboxamide] fall in the same range of IC50: 50 to 1000 nM for the first, 50 to 1000 nM for the second.

`CNC(=O)c1nc(-c2cccc(C(=O)NCc3c(F)ccc(F)c3Cl)c2)cnc1N` [Example 297, 3-amino-6-[3-({[(2-chloro-3,6-difluorophenyl)methyl]amino}carbonyl)phenyl]-N-methylpyrazine-2-carboxamide] and `CNC(=O)c1nc(-c2cccc(C(=O)NCc3c(Cl)ccc(C)c3F)c2)cnc1N` [Example 301, 3-amino-6-[3-({[(6-chloro-2-fluoro-3-methylphenyl)methyl]amino}carbonyl)phenyl]-N-methylpyrazine-2-carboxamide] fall in the same range of IC50: 50 to 1000 nM for the first, 50 to 1000 nM for the second.

`CNC(=O)c1nc(-c2cccc(C(=O)NCc3ccc(C)c(F)c3F)c2)cnc1N` [Example 298, 3-amino-6-[3-({[(2,3-difluoro-4-methylphenyl)methyl]amino}carbonyl)phenyl]-N-methylpyrazine-2-carboxamide] and `CNC(=O)c1nc(-c2cccc(C(=O)NCc3ccc(C)c(Cl)c3)c2)cnc1N` [Example 303, 3-amino-6-[3-({[(3-chloro-4-methylphenyl)methyl]amino}carbonyl)phenyl]-N-methylpyrazine-2-carboxamide] fall in the same range of IC50: 50 to 1000 nM for the first, 50 to 1000 nM for the second.

First: CNC(=O)c1nc(-c2cccc(C(=O)NCc3ccc(I)cc3)c2)cnc1N [Example 302, 3-amino-6-[3-({[(4-iodophenyl)methyl]amino}carbonyl)phenyl]-N-methylpyrazine-2-carboxamide]
Second: CNC(=O)c1nc(-c2cccc(C(=O)NCc3ccc(Br)cc3)c2)cnc1N [Example 304, 3-amino-6-[3-({[(4-bromophenyl)methyl]amino}carbonyl)phenyl]-N-methylpyrazine-2-carboxamide]
The IC50 of the first is lower: < 50 nM for the first, 50 to 1000 nM for the second. The first is the more potent here.

`CNC(=O)c1nc(-c2cccc(C(=O)NCc3ccccc3Br)c2)cnc1N` [Example 305, 3-amino-6-[3-({[(2-bromophenyl)methyl]amino}carbonyl)phenyl]-N-methylpyrazine-2-carboxamide] and `CNC(=O)c1nc(-c2cccc(C(=O)NCc3ccccc3O)c2)cnc1N` [Example 327, 3-amino-6-[3-({[(2-hydroxyphenyl)methyl]amino}carbonyl)phenyl]-N-methylpyrazine-2-carboxamide] fall in the same range of IC50: 50 to 1000 nM for the first, 50 to 1000 nM for the second.

`CNC(=O)c1nc(-c2cccc(CNC(=O)c3ccccc3)c2)cnc1N` [Example 308, 3-amino-N-methyl-6-(3-{[(phenylcarbonyl)amino]methyl}phenyl)pyrazine-2-carboxamide] and `CNC(=O)c1nc(-c2cccc(CNC(=O)c3ccc(Cl)cc3)c2)cnc1N` [Example 309, 3-amino-6-[3-({[(4-chlorophenyl)carbonyl]amino}methyl)phenyl]-N-methylpyrazine-2-carboxamide] fall in the same range of IC50: 50 to 1000 nM for the first, 50 to 1000 nM for the second.

`CNC(=O)c1nc(-c2cccc(CNC(=O)c3cc(F)ccc3F)c2)cnc1N` [Example 310, 3-amino-6-[3-({[(2,5-difluorophenyl)carbonyl]amino}methyl)phenyl]-N-methylpyrazine-2-carboxamide] and `CNC(=O)c1nc(-c2cccc(CNC(=O)c3ccc(Cl)c(Cl)c3)c2)cnc1N` [Example 320, 3-amino-6-[3-({[(3,4-dichlorophenyl)carbonyl]amino}methyl)phenyl]-N-methylpyrazine-2-carboxamide] fall in the same range of IC50: 50 to 1000 nM for the first, 50 to 1000 nM for the second.

`CNC(=O)c1nc(-c2cccc(CNC(=O)c3ccc4ccccc4c3)c2)cnc1N` [Example 311, 3-amino-N-methyl-6-(3-{[(naphthalen-2-ylcarbonyl)amino]methyl}phenyl)pyrazine-2-carboxamide] and `CNC(=O)c1nc(-c2cccc(C(=O)NCc3cccc(O)c3)c2)cnc1N` [Example 326, 3-amino-6-[3-({[(3-hydroxyphenyl)methyl]amino}carbonyl)phenyl]-N-methylpyrazine-2-carboxamide] fall in the same range of IC50: 50 to 1000 nM for the first, 50 to 1000 nM for the second.

`CNC(=O)c1nc(-c2cccc(CSCc3ccccc3)c2)cnc1N` [Example 312, 3-amino-N-methyl-6-(3-{[(phenylmethyl)thio]methyl}phenyl)pyrazine-2-carboxamide] and `CNC(=O)c1nc(-c2cccc(COCc3ccccc3)c2)cnc1N` [Example 314, 3-amino-N-methyl-6-(3-{[(phenylmethyl)oxy]methyl}phenyl)pyrazine-2-carboxamide] fall in the same range of IC50: 50 to 1000 nM for the first, 50 to 1000 nM for the second.

`CNC(=O)c1nc(-c2cccc(CS(=O)(=O)Cc3ccccc3)c2)cnc1N` [Example 313, 3-amino-N-methyl-6-(3-{[(phenylmethyl)sulfonyl]methyl}phenyl)pyrazine-2-carboxamide] and `CNC(=O)c1nc(-c2cccc(CNCc3ccccc3)c2)cnc1N` [Example 315, 3-amino-N-methyl-6-(3-{[(phenylmethyl)amino]methyl}phenyl)pyrazine-2-carboxamide] fall in the same range of IC50: 50 to 1000 nM for the first, 50 to 1000 nM for the second.

`CNC(=O)c1nc(-c2cccc(C(=O)NCc3cc(F)c(F)c(F)c3)c2)cnc1N` [Example 316, 3-amino-N-methyl-6-[3-({[(3,4,5-trifluorophenyl)methyl]amino}carbonyl)phenyl]pyrazine-2-carboxamide] and `CNC(=O)c1nc(-c2cccc(C(=O)NCc3ccc(O)cc3)c2)cnc1N` [Example 323, 3-amino-6-[3-({[(4-hydroxyphenyl)methyl]amino}carbonyl)phenyl]-N-methylpyrazine-2-carboxamide] fall in the same range of IC50: 50 to 1000 nM for the first, 50 to 1000 nM for the second.

First: CNC(=O)c1nc(-c2cccc(NC(=O)OCC3c4ccccc4-c4ccccc43)c2)cnc1N [Example 317, 9H-fluoren-9-ylmethyl (3-{5-amino-6-[(methylamino)carbonyl]pyrazin-2-yl}phenyl)carbamate]
Second: CNC(=O)c1nc(-c2cccc(NC(=O)OCc3ccccc3)c2)cnc1N [Example 318, phenylmethyl (3-{5-amino-6-[(methylamino)carbonyl]pyrazin-2-yl}phenyl)carbamate]
The IC50 of the first is higher: 1000 to 10000 nM for the first, 50 to 1000 nM for the second.

First: CCOC(=O)Nc1cccc(-c2cnc(N)c(C(=O)NC)n2)c1 [Example 319, ethyl (3-{5-amino-6-[(methylamino)carbonyl]pyrazin-2-yl}phenyl)carbamate]
Second: CNC(=O)c1nc(-c2cccc(NC(=O)OC(C)(C)C)c2)cnc1N [Example 321, 1,1-dimethylethyl (3-{5-amino-6-[(methylamino)carbonyl]pyrazin-2-yl}phenyl)carbamate]
The IC50 of the first is lower: 50 to 1000 nM for the first, 1000 to 10000 nM for the second. The first is the more potent here.

First: CNC(=O)c1nc(-c2cccc(NC(=O)O[C@@H]3C[C@H](C)CC[C@H]3C(C)C)c2)cnc1N [Example 322, (1R,2S,5R)-5-methyl-2-(1-methylethyl)cyclohexyl (3-{5-amino-6-[(methylamino)carbonyl]pyrazin-2-yl}phenyl)carbamate]
Second: CNC(=O)c1nc(-c2cccc(C(=O)NNc3ccccc3)c2)cnc1N [Example 328, 3-amino-N-methyl-6-{3-[(2-phenylhydrazino)carbonyl]phenyl}pyrazine-2-carboxamide]
The IC50 of the first is higher: ≥ 10000 nM for the first, < 50 nM for the second. The second is the more potent here.

Compound `CNC(=O)c1nc(-c2cccc(C(=O)NCc3ccc(OCCN4CCOCC4)cc3)c2)cnc1N` [Example 324, 3-amino-N-methyl-6-(3-{[({4-[(2-morpholin-4-ylethyl)oxy]phenyl}methyl)amino]carbonyl}phenyl)pyrazine-2-carboxamide] has an IC50 of 50 to 1000 nM.
